Experimental data from US20070149779A1, “PRIMIDONE PROCESS AND COMPOSITIONS” (priority 2005, published 2007).
Values after ≈ are worked out from the molar mass of the structure shown.

What was measured:
[1] = Bulk density, tapped density and Carr index of primidone and primidone granules; format: physicochemical; settings: for Carr Index: percent compressibility from tapped and bulk density
Excerpt: “Carr index” as used herein is defined as the percent compressibility, that is a percentage ratio of the difference between tapped bulk density and initial bulk density to tapped bulk density.

[2] = cited from earlier work

| Bulk Density, (Db) [1] [g/mL] | Tapped density (Dt) [1] [g/mL] | Carr Index [1] [%] | Structure (SMILES) | solubility in water [2] [µg/mL] |
| --- | --- | --- | --- | --- |
| 0.850 | 0.905 | 6.1 | CCC1(c2ccccc2)C(=O)NCNC1=O [Primidone Particle size D90 307 μm] |  |
|  |  |  | CCC1(c2ccccc2)C(=O)NCNC1=O [Primidone, 5-ethyldihydro-5-phenyl-4,6 (1H, 5H pyrimidinedione)] | 600 (≈ 2750 µM) |
| 0.221 | 0.307 | 28 | CCC1(c2ccccc2)C(=O)NCNC1=O [Primidone Particle size D90 7.1 μm] |  |
